Data as given in article PMC2248282 (Chemmedchem, 2007).

How the values were obtained:
[1] = system: human embryonic kidney cells (HEK 293T); assay: Cytotoxicity to mammalian cells; assay type: cell-based; details: read-out: IC50 HEK 293T
T. b. brucei (Bs427) = assay: In vitro trypanocidal assay; assay type: cell-based; details: for IC50: Trypanosoma brucei, read-out: IC50 Bs427; for activity against T. b. brucei (in words): in vitro
[2] = LC-MS stability in phosphate buffer saline at 37°C; assay type: physicochemical
[3] = phosphate buffered saline, pH 7.2

Compound	IC50 [1] [µM]	IC50 (T. b. brucei (Bs427)) [µM]	half-life at 1 mg/mL [2, 3] [min]	activity against T. b. brucei (in words) (T. b. brucei (Bs427))	half-life ([2]; PBS (pH 7.2) at 37°C, LC-MS, disappearance of molecular ion) [min]	half-life [2, 3] [min]
COc1ccc(CONC(=O)C2OC(C)(C)OC2COP(=O)(OCCSC(=O)C(C)(C)C)Oc2ccccc2)cc1 (stereo not drawn) [Compound 26a, 2,2-Dimethyl-thiopropionic acid S-(2-{[5-(4-methoxy-benzyloxycarbamoyl)-2,2-dimethyl-[1,3]dioxolan-4-ylmethoxy]-phenoxy-phosphoryloxy}-ethyl) ester]	> 200	> 100				
CC1(C)OC(COP(=O)(OCOC(=O)C(C)(C)C)OCOC(=O)C(C)(C)C)C(C(=O)NO)O1 (stereo not drawn) [Compound 3e, (5-(hydroxycarbamoyl)-2,2-dimethyl-1,3-dioxolan-4-yl)methyl bis((pivaloyloxy)methyl) phosphate]	> 200	20.2	31.8	moderate activities		
2,2-Dimethyl-thiopropionic acid S-(2-{[5-(2,4-dimethoxy-benzyloxycarbamoyl)-2,2-dimethyl-[1,3]dioxolan-4-ylmethoxy]-phenoxy-phosphoryloxy}-ethyl) ester [Compound 3d]				highest activity	128	
CC1(C)OC(COP(=O)(OCCSC(=O)C(C)(C)C)OCCSC(=O)C(C)(C)C)C(C(=O)NO)O1 (stereo not drawn) [Compound 3a, 2,2-Dimethyl-thiopropionic acid S-{2-[[2-(2,2-dimethyl-propionylsulfanyl)-ethoxy]-(5-hydroxycarbamoyl-2,2-dimethyl-[1,3]dioxolan-4-ylmethoxy)-phosphoryloxy]-ethyl} ester]	> 200	4.23		highest activity		
COC(=O)C(C)NP(=O)(OCC1OC(C)(C)OC1C(=O)NO)Oc1ccc([N+](=O)[O-])cc1 (stereo not drawn) [Compound 3c, 2-[(5-Hydroxycarbamoyl-2,2-dimethyl-[1,3]dioxolan-4-ylmethoxy)-(4-nitro-phenoxy)-phosphorylamino]-propionic acid methyl ester]	> 200	43.8	51	moderate activities		
COc1ccc(CONC(=O)C2OC(C)(C)OC2COP(=O)(OCCSC(=O)C(C)(C)C)Oc2ccccc2)c(OC)c1 (stereo not drawn) [Compound 26b, 2,2-Dimethyl-thiopropionic acid S-(2-{[5-(2,4-dimethoxy-benzyloxycarbamoyl)-2,2-dimethyl-[1,3]dioxolan-4-ylmethoxy]-phenoxy-phosphoryloxy}-ethyl) ester]	> 200	> 100				
COc1ccc(CONC(=O)C2OC(C)(C)OC2COP(=O)(OCCSC(=O)C(C)(C)C)OCCSC(=O)C(C)(C)C)c(OC)c1 (stereo not drawn) [Compound 24, 2,2-dimethyl-thiopropionic acid S-(2-{[5-(2,4-dimethoxy-benzyloxycarbamoyl)-2,2-dimethyl-[1,3]dioxolan-4-ylmethoxy]-[2-(2,2-dimethyl-propionylsulfanyl)-ethoxy]-phosphoryloxy}-ethyl) ester]	> 200	25		improved activity		
COC(=O)C(C)NP(=O)(OCC1OC(C)(C)OC1C(=O)NO)Oc1ccccc1 (stereo not drawn) [Compound 3b, 2-[(5-Hydroxycarbamoyl-2,2-dimethyl-[1,3]dioxolan-4-ylmethoxy)-phenoxy-phosphorylamino]-propionic acid methyl ester]	> 200	6.95		highest activity		300
